Test results from patent publication US20190002492A1, “DERIVATIVES OF ALLOPR[…] OF EPIALLOPR[…] USES THEREOF FOR TREATING A NEUROPATHOLOGICAL CONDITION” (UNIVERSITE DE STRASBOURG, priority 2011, published 2019).
Entries after “also recorded” stand apart in the source; their conditions may differ.

Legend:
[1] = tested on: type A GABA channel receptors (GABAa-R); test: Whole-cell patch-clamp, effect on GABA-induced ionic current; format: cell-based, human; conditions: 0.25 μM compound, GABA 10 μM in the recording pipette, whole cell patch-clamp
Experimental: The studies were conducted using an electrophysiological approach. The activity of the cells was recorded using the patch-clamp technique in its so-called whole cell configuration. The mediums used for the recordings have the following composition (in mM): NaCl ([…]), KCl (2), CaCl2 (1), MgCl2 (2), HEPES (10) for the medium bathing the cells and NaCl (132), KCl (2), CaCl2 (1), MgCl2 (2), TEA (15), HEPES (10) for the recording pipette, the pH was adjusted in both cases to 7.4 with NaOH. The GABA 10 μM was added into the recording pipette.
After producing a “gigaseal” (Planar patch clamp) between the cellular membrane and the tip of a pipette with an electrical resistance comprised between 4 and 7 MO, the ionic currents were measured using a patch-clamp amplifier (Axopatch B200, Axon Instruments, CA). The acquisition of the signal (acquisition frequency of 10 kHz) was done using an interface card (Digidata 1322A, Axon Instruments, CA) and the pClamp 8 software (Axons Instruments, CA).
The allopregnanolone and the BR053, BR338, BR297 and BR351 derivatives were solubilized in pure ethanol before being diluted in the medium to the desired concentration. The dilution factor was at least equal to 2×10^4, which makes the final concentration of ethanol in the recording solution remain below […] (a concentration not affecting the activity of the GABAa receptor).
Depending on the experiments, the allopregnanolone or the BR053, BR338, BR297 or BR351 derivatives, at the concentration of 0.25 μM, were either added in the recording pipette at the same time as the GABA, or applied to the cell by perfusion.
The application was done by gravity through a multi-path perfusion system made up of glass tubes each having an inner diameter of 1 mm. The selected path was placed across from the recorded cell at approximately 100 μm. The solution was changed by calibrated rotation of the tubes using a stepping motor thus placing the new selected path across from the cell. Synchronously with that rotation, the solenoid valve controlling the flow of the selected path was also opened and the preceding one closed.

[2] = tested on: Sprague-Dawley rats; test: Acetone test of thermal allodynia to cold, painful neuropathy caused by vincristine; format: in vivo, rat; conditions: rats with vincristine neuropathy, 4 mg/kg i.p. every 2 days for 2 weeks
Text: Adult male Sprague-Dawley rats weighing between 250 and 300 g were used. They came from the company Janvier (le Genest St. Isle, France). The care and handling of the animals were done in accordance with the guidelines from the Council of the European Community (86/609/EC) and in accordance with the ethical rules of the International Association for the Study of Pain. The protocol used to carry out the in vivo studies was subject to examination and authorization granted to Prof. Mensah-Nyagan's team by the Alsatian Department of the Veterinary Public Health Guide for the Care and Use of Laboratory Animals (Approval number 67-186). The rats were housed under standard conditions with a photoperiod of 12 h day/12 h night, with unlimited food and water. The animals spent one acclimatization week before being integrated into the experimental protocols. Each animal was examined daily to detect any signs of deterioration of its health condition, such as dramatic weight loss, a decrease in appetite during chemotherapy and pharmacological treatment.
Vincristine sulfate (VINC), purchased from Sigma-Aldrich (St. Louis, Mo., USA), was dissolved in a physiological saline solution (NaCl 0.9%) at 0.1 mg/ml and stored at 4° C. The saline solution (NaCl 0.9%) is used as excipient. The VINC is injected daily by intraperitoneal injection (i.p.), in 2 cycles of 5 days separated by 2 days off, at a concentration of 0.1 mg/kg/day. The control animals were injected by i.p. (1 ml/kg) with the excipient using a similar protocol.
The allopregnanolone in the derivatives according to the invention (BR053 and BR297) were diluted in a hydroxypropylcellulose (HPC) solution (0.3%) used as excipient. The curative treatment with allopregnanolone, BR053 or BR297 began 3 days after the vincristine cycles. Each of these compounds (allopregnanolone, BR053 or BR297) was administered by the intraperitoneal route at a dose of 4 mg/kg at a rate of one injection every 2 days. Thus, over the total duration of the in vivo experiments (14 days), each animal received 7 injections of excipient, allopregnanolone, BR053 or BR297, based on its group, at a dose of 4 mg/kg. The animals were sacrificed 24 hours after the last behavioral test (28th day) to remove tissues that will be used for later histology and electrophysiology studies.
The thermal nociceptive sensitivity threshold to cold was measured in rats placed in individual Plexiglas boxes (30×30×25 cm) mounted on a raised mesh support so as to allow access to the sole of the animal's foot. […] Six measurements (3 per foot) were performed with a latency of 5 minutes between each stimulation. The average latency for withdrawal of the feet (in seconds) was calculated by averaging 6 measurements at each studied point in time. […]

[3] = tested on: SH-SY5Y human neuroblastomas; test: Neuroprotection against cell death caused by oxidizing stress (H2O2), MTT readout; format: cell-based; parameters: key to Neuroprotective effect against cell death caused by oxidizing stress: −: no effect; +: low effect; ++: high effect; +++: very high effect; conditions: H2O2 1 mM; for Neuroprotective effect against cell death caused by oxidizing stress: SH-SY5Y cultures, 24 or 48 hours, MTT; for Protection of human neuroblastomas from cell death caused by H2O2 (in words): SH-SY5Y
Experimental: The cellular model used to carry out the in vitro experiments is a line of human neuroblastomas called line SH-SY5Y.
The human neuroblastoma is a cultivated at 37° C. in a humidity saturated atmosphere, under 5% CO2 in a culture medium formed by DMEM with an added 10% (v/v) fetal calf serum, 5% (v/v) horse serum, 2 mM glutamax and 1% (v/v) of the penicillin/streptomycin mixture.
The human neuroblastomas were incubated with the culture medium alone or containing the chief inducing agent of oxidizing stress, hydrogen peroxide (H2O2), at various concentrations in order to determine the concentrations of H2O2 and the incubation times causing the death of a significant percentage of the cells. The neuroprotective properties of the BR053, BR338, BR297 and BR351 derivatives were determined by pretreating the SH-SY5Y cells with the culture medium alone or respectively containing the BR053, BR338, BR297 or BR351 derivative. After pretreatment, each of these categories of cells was integrated for 24 hours or 48 hours with the following solutions: (i) culture medium; (ii) culture medium containing only the BR053, BR338, BR297 or BR351 derivative; (iii) culture medium containing only H2O2 at a concentration of 1 mM, which causes a high percentage of cell death; (iv) culture medium containing both H2O2 (1 mM) and one of the BR053, BR338, BR297 or BR351 derivatives.
10 μl of a stock solution of tetrazolium, abbreviated MTT, at 3.6 mM was added in each well and the incubation continued in darkness for 5 h at 37° C. After cell lysis, spectrophotometer measurements at 595 nm were carried out to determine the survival and cell density under each of the conditions described above.

SMILES	Effect on the type A GABA receptor channel or GABAa-R [1]	Effect on thermal allodynia to cold [2]	Neuroprotective effect against cell death caused by oxidizing stress [3]	Protection of human neuroblastomas from cell death caused by H2O2 (in words) [3]
C=CCO[C@H]1CC[C@]2(C)C3CC[C@@]4(C)C(CC[C@@H]4C(C)=O)C3CC[C@H]2C1 (some centres unmarked) [BR297]	only partially mimics the positive allosteric effect; also recorded: Partial positive allosteric effect	eliminates the symptoms	++	capable of protecting human neuroblastomas from the cell death
CC(=O)[C@H]1CCC2C3CC[C@H]4C[C@@H](O)CC[C@]4(C)C3CC(=O)[C@@]21C (some centres unmarked) [BR053]	negative allosteric action; also recorded: Negative allosteric effect	eliminates the symptoms	+++	capable of protecting human neuroblastomas from the cell death
